According to ChEMBL document CHEMBL4673219, “Novel 5,6-disubstituted pyrrolo[2,3-d]pyrimidine derivatives as broad spectrum antiproliferative agents: Synthesis, cell based assays, kinase profile and molecular docking study” (Bioorg Med Chem, 2018):

How the values were obtained:
HCT-116 [1] = assay: Antiproliferative activity against human HCT-116 cells assessed as cell growth inhibition at 10 uM measured after 72 hrs by MTT assay relative to control; assay type: functional; conditions: read-out: GI
SK-BR-3 [2] = assay: Antiproliferative activity against human SK-BR-3 cells assessed as cell growth inhibition measured after 72 hrs by MTT assay; assay type: functional
SK-BR-3 [3] = assay: Antiproliferative activity against human SK-BR-3 cells assessed as cell growth inhibition at 10 uM measured after 72 hrs by MTT assay relative to control; assay type: functional; conditions: read-out: GI
MCF7 [4] = assay: Antiproliferative activity against human MCF7 cells assessed as cell growth inhibition measured after 72 hrs by MTT assay; assay type: functional
MCF7 [5] = assay: Antiproliferative activity against human MCF7 cells assessed as cell growth inhibition at 10 uM measured after 72 hrs by MTT assay relative to control; assay type: functional; conditions: read-out: GI
HCT-116 [6] = assay: Antiproliferative activity against human HCT-116 cells assessed as cell growth inhibition measured after 72 hrs by MTT assay; assay type: functional
[7] = target: High affinity nerve growth factor receptor (Homo sapiens, UniProt P04629); assay: Inhibition of human Trk-A using myelin basic protein as substrate incubated for 40 mins in presence of [gamma33P]ATP by scintillation counting method
[8] = target: Fibroblast growth factor receptor 2 (Homo sapiens) (UniProt P21802); assay: Inhibition of human FGFR2 at 10 uM using myelin basic protein as substrate incubated for 40 mins in presence of [gamma33P]ATP by scintillation counting method relative to control
[9] = target: Fibroblast growth factor receptor 1 (Homo sapiens) (UniProt P11362); assay: Inhibition of human FGFR1 at 10 uM using myelin basic protein as substrate incubated for 40 mins in presence of [gamma33P]ATP by scintillation counting method relative to control
Sequence of Fibroblast growth factor receptor 1 (Homo sapiens) (P11362 22-822 limits assumed): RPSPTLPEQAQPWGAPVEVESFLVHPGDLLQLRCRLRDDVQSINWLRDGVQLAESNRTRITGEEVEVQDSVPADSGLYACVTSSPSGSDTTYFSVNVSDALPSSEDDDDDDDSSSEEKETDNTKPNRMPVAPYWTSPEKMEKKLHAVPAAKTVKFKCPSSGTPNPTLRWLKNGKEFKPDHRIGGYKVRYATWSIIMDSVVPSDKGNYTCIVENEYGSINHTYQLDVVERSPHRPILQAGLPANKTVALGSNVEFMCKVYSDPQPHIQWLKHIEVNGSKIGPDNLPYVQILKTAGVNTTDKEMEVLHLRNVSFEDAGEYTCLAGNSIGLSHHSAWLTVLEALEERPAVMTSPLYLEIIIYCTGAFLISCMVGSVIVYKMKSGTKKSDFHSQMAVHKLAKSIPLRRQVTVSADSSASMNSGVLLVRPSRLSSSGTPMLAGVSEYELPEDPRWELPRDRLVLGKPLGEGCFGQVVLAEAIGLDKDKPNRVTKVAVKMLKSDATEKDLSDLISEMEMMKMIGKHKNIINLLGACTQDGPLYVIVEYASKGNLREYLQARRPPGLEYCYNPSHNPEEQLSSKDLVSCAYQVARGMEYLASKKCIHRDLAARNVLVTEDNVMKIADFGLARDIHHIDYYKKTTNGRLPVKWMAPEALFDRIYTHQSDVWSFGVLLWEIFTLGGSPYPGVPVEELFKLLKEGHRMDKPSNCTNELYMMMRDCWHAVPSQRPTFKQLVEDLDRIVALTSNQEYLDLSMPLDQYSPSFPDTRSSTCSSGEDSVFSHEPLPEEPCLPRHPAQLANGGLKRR

Sequence of Fibroblast growth factor receptor 2 (Homo sapiens) (P21802 22-821 limits assumed): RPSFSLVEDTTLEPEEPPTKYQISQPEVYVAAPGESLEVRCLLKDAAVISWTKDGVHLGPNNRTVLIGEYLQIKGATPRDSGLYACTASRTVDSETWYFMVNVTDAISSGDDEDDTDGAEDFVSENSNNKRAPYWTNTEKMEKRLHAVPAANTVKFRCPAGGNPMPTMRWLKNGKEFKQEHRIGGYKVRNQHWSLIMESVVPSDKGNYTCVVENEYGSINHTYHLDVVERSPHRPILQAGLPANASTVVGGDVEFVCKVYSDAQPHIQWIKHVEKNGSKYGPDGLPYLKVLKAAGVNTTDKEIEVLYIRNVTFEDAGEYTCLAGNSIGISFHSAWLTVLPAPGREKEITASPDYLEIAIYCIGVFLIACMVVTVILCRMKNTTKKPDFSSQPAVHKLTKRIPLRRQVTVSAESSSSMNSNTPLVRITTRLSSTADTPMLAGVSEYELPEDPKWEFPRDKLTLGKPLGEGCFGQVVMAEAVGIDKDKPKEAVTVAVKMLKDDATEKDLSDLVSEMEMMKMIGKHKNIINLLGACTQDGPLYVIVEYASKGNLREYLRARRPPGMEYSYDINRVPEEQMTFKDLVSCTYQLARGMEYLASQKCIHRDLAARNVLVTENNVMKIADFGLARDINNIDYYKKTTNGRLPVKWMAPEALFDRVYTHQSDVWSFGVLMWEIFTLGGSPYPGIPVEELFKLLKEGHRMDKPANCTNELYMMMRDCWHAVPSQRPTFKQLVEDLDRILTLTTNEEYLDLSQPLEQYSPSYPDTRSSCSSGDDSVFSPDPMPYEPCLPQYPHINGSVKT
Sequence of High affinity nerve growth factor receptor (P04629 whole entry): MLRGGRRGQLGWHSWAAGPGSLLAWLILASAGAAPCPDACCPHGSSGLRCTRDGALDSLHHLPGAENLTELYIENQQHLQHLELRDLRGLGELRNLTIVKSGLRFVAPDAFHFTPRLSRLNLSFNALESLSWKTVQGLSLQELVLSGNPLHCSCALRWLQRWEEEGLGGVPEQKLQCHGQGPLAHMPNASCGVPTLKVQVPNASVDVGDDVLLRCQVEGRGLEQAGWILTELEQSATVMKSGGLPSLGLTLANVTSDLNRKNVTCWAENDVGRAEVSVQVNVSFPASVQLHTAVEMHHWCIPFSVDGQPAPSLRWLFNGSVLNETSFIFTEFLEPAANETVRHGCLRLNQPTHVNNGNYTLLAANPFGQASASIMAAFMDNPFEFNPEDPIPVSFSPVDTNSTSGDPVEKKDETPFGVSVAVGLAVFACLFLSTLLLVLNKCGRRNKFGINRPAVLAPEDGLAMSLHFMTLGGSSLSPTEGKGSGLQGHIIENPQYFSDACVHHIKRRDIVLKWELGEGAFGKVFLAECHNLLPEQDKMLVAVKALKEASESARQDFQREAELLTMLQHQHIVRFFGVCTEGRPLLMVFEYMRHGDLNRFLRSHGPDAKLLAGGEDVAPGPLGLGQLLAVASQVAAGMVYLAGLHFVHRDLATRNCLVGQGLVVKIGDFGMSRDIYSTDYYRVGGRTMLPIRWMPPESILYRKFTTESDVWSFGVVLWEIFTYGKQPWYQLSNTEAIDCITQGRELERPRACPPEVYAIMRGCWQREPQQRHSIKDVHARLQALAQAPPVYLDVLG

Row | GI50 (SK-BR-3 [2]) [µM] | GI50 (MCF7 [4]) [µM] | GI50 (HCT-116 [6]) [µM] | IC50 [7] [µM] | inhibition [8] [%] | inhibition [9] [%] | Structure (SMILES) | inhibition of growth at 10 µM (HCT-116 [1]) [%] | inhibition of growth at 10 µM (SK-BR-3 [3]) [%] | inhibition of growth at 10 µM (MCF7 [5]) [%]
1 | 0.347 | 0.392 |  |  |  |  | COc1c(C)cnc(Cn2cnc3c(Cl)nc(N)nc32)c1C [BIIB021] | 86.2 | 71.9 | 84.8
2 | 0.95 |  | 7.17 |  |  |  | CCCCCCCC(=O)Nc1nc2[nH]cc(CN3CCN(c4cccc(Cl)c4)CC3)c2c(=O)[nH]1 | 72.7 | 69.7 | 43.4
3 |  |  |  |  |  |  | CCCCCCCC(=O)Nc1nc2[nH]cc(CN3CCN(CCN4CCOCC4)CC3)c2c(=O)[nH]1 | 93 | 90.4 | 88.6
4 | 15 | 13.4 | 14.9 |  |  |  | CCCCCCCC(=O)Nc1nc2[nH]cc(CN3CCCCC3)c2c(=O)[nH]1 | 51.1 | 77.1 | 70.2
5 |  |  |  |  |  |  | CN1CCN(Cc2c[nH]c3nc(N)[nH]c(=O)c23)CC1 | 16.5 | 29 | 20.2
6 |  |  |  |  |  |  | Nc1nc2[nH]c(CN3CCN(Cc4ccc(F)cc4)CC3)c(CN3CCN(Cc4ccc(F)cc4)CC3)c2c(=O)[nH]1 | 23 | 23.2 | 18.4
7 |  |  |  |  |  |  | Nc1nc2[nH]cc(CN3CCN(CCO)CC3)c2c(=O)[nH]1 | 17.8 | 32.8 | 18.8
8 |  |  |  |  |  |  | Nc1nc2[nH]c(CN3CCN(Cc4cccc(F)c4)CC3)c(CN3CCN(Cc4cccc(F)c4)CC3)c2c(=O)[nH]1 | 13.6 | 10.5 | 16.1
9 |  |  |  |  |  |  | CCCCCCCC(=O)Nc1nc2[nH]c(CN3CCN(c4ccc([N+](=O)[O-])cc4)CC3)c(CN3CCN(c4ccc([N+](=O)[O-])cc4)CC3)c2c(=O)[nH]1 | 27 | 64.6 | 12.6
10 | 23.7 |  | 8.37 |  |  |  | N#Cc1ccccc1N1CCN(Cc2c[nH]c3nc(N)[nH]c(=O)c23)CC1 | 72 | 73.8 | 51.1
11 |  |  |  |  |  |  | CCCCCCCC(=O)Nc1nc2[nH]cc(CN3CCN(C)CC3)c2c(=O)[nH]1 | 51 | 50.4 | 59.6
12 |  |  |  |  |  |  | Nc1nc2[nH]c(CN3CCN(Cc4ccccc4F)CC3)c(CN3CCN(Cc4ccccc4F)CC3)c2c(=O)[nH]1 | 12.8 | 59 | 8.91
13 |  |  |  |  |  |  | Nc1nc2[nH]c(CN3CCN(C(c4ccccc4)c4ccccc4)CC3)c(CN3CCN(C(c4ccccc4)c4ccccc4)CC3)c2c(=O)[nH]1 | 10.7 | 11.1 | 13.8
14 | 1.23 |  | 8.94 |  |  |  | CCCCCCCC(=O)Nc1nc2[nH]cc(CN3CCN(c4ccc(OC)cc4)CC3)c2c(=O)[nH]1 | 71.4 | 71.4 | 49.2
15 | 6.43 |  | 18.4 |  |  |  | CCCCCCCC(=O)Nc1nc2[nH]c(CN3CCN(C(c4ccccc4)c4ccccc4)CC3)c(CN3CCN(C(c4ccccc4)c4ccccc4)CC3)c2c(=O)[nH]1 | 41.5 | 67.3 | 15.2
16 | 3.73 | 4.2 | 1.89 | 3.15 | 23 | 59.8 | CCCCCCCC(=O)Nc1nc2[nH]c(CN3CCN(Cc4ccccc4F)CC3)c(CN3CCN(Cc4ccccc4F)CC3)c2c(=O)[nH]1 | 97.3 | 93.4 | 96.1
17 | 8.04 |  |  |  |  |  | CCCCCCCC(=O)Nc1nc2[nH]cc(CN3CCN(c4ccc([N+](=O)[O-])cc4)CC3)c2c(=O)[nH]1 | 68.5 | 61.6 | 40.4
18 | 5.58 | 7.84 | 5.34 |  |  |  | CCCCCCCC(=O)Nc1nc2[nH]cc(CN3CCN(Cc4cccc(F)c4)CC3)c2c(=O)[nH]1 | 92.8 | 91.2 | 85.7
19 |  |  |  |  |  |  | CCCCCCCC(=O)Nc1nc2[nH]c(CN3CCN(c4cc(Cl)cc(Cl)c4)CC3)c(CN3CCN(c4cc(Cl)cc(Cl)c4)CC3)c2c(=O)[nH]1 | 6.88 | 42.5 | 10.7
20 |  |  |  |  |  |  | CCCCCCCC(=O)Nc1nc2[nH]cc(CN3CCN(C(=O)c4ccco4)CC3)c2c(=O)[nH]1 | 60.2 | 71.2 | 68.5
21 |  |  |  |  |  |  | Nc1nc(O)c2c(CN3CCCCC3)c[nH]c2n1 | 24.1 | 17.5 | 23.8

Row | GI50 (SK-BR-3 [2]) [µM] | GI50 (MCF7 [4]) [µM] | GI50 (HCT-116 [6]) [µM] | IC50 [7] [µM] | inhibition [8] [%] | inhibition [9] [%] | Structure (SMILES) | inhibition of growth at 10 µM (HCT-116 [1]) [%] | inhibition of growth at 10 µM (SK-BR-3 [3]) [%] | inhibition of growth at 10 µM (MCF7 [5]) [%]
22 | 0.41 |  | 1.01 |  |  |  | CCCCCCCC(=O)Nc1nc2[nH]cc(CN3CCN(C(c4ccccc4)c4ccccc4)CC3)c2c(=O)[nH]1 | 75.5 | 67.4 | 58.4
23 |  |  |  |  |  |  | CCCCCCCC(=O)Nc1nc2[nH]cc(CN3CCN(CCO)CC3)c2c(=O)[nH]1 | 67.3 | 62.2 | 42
24 |  |  |  |  |  |  | CC(=O)N1CCN(Cc2c[nH]c3nc(N)[nH]c(=O)c23)CC1 | 13.8 | 24.2 | 16.2
25 | 3.6 | 1.75 | 4.13 | 2.76 | 14.7 | 50.5 | CCCCCCCC(=O)Nc1nc2[nH]c(CN3CCN(Cc4ccc(F)cc4)CC3)c(CN3CCN(Cc4ccc(F)cc4)CC3)c2c(=O)[nH]1 | 97.1 | 93.5 | 97.2
26 | 0.97 |  | 1.46 |  |  |  | CCCCCCCC(=O)Nc1nc2[nH]cc(CN3CCN(c4ccccc4C#N)CC3)c2c(=O)[nH]1 | 79.5 | 84.6 | 59.2
27 |  | 33.9 | 20.3 |  |  |  | Nc1nc2[nH]cc(CN3CCN(C(c4ccccc4)c4ccccc4)CC3)c2c(=O)[nH]1 | 80.5 | 4.22 | 79.5
28 | 3.64 | 2.78 | 4.09 | 2.29 | 24 | 47.1 | CCCCCCCC(=O)Nc1nc2[nH]c(CN3CCN(Cc4ccccc4)CC3)c(CN3CCN(Cc4ccccc4)CC3)c2c(=O)[nH]1 | 97 | 93.4 | 96.6
29 |  |  |  |  |  |  | CCCCCCCC(=O)Nc1nc2[nH]cc(Cn3ccnc3)c2c(=O)[nH]1 | 80.5 | 86.1 | 68.2
30 |  |  |  |  |  |  | CCCCCCCC(=O)Nc1nc2[nH]cc(CN3CCN(C(C)=O)CC3)c2c(=O)[nH]1 | 43.8 | 40.2 | 35.8
31 |  |  |  |  |  |  | Nc1nc2[nH]cc(Cn3ccnc3)c2c(=O)[nH]1 | 50.6 | 38.8 | 38.8
32 |  |  |  |  |  |  | Nc1nc2[nH]cc(CN3CCN(c4ccc([N+](=O)[O-])cc4)CC3)c2c(=O)[nH]1 | 28.5 | 27.5 | 26.8
33 |  |  |  |  |  |  | Nc1nc2[nH]c(CN3CCN(Cc4ccccc4)CC3)c(CN3CCN(Cc4ccccc4)CC3)c2c(=O)[nH]1 | 21.4 | 15.7 | 21.2
34 |  |  |  |  |  |  | CCCCCCCC(=O)Nc1nc2[nH]cc(CN3CCC(NC(=O)OC(C)(C)C)CC3)c2c(=O)[nH]1 | 50.3 | 59.3 | 36.5
35 |  |  |  |  |  |  | Nc1nc2[nH]cc(CN3CCN(Cc4cccc(F)c4)CC3)c2c(=O)[nH]1 | 31.1 | 16.8 | 20.6
36 |  |  |  |  |  |  | Nc1nc2[nH]cc(CN3CCN(c4ccccc4)CC3)c2c(=O)[nH]1 | 49 | 30.7 | 49.7
37 | 0.63 |  | 3.99 |  |  |  | CCCCCCCC(=O)Nc1nc2[nH]cc(CN3CCN(c4ccccc4)CC3)c2c(=O)[nH]1 | 73.9 | 67.6 | 50.3
38 | 8.28 |  | 7.66 |  |  |  | Nc1nc2[nH]cc(CN3CCN(c4cccc(Cl)c4)CC3)c2c(=O)[nH]1 | 79.3 | 67.5 | 54.2
39 |  |  |  |  |  |  | Nc1nc2[nH]c(CN3CCN(c4ccc([N+](=O)[O-])cc4)CC3)c(CN3CCN(c4ccc([N+](=O)[O-])cc4)CC3)c2c(=O)[nH]1 | 1.94 | 6.79 | 1.26
40 | 11.2 |  |  |  |  |  | COc1ccc(N2CCN(Cc3c[nH]c4nc(N)[nH]c(=O)c34)CC2)cc1 | 69.2 | 57.5 | 51.7
41 |  |  |  |  |  |  | Nc1nc2[nH]cc(CN3CCN(CCN4CCOCC4)CC3)c2c(=O)[nH]1 | 15.4 | 27.1 | 19.5
